Data from US11191754B2, “Inhibitors of nucleotidyl transferases and uses in herpes and hepatitis viral infections therefor” (Saint Louis University, priority 2015, dated 2021).
Read-outs that look alike come from different tables or passages of the source.

Key:
HBV [1] = test: Chou-Talalay combination analysis with Lamivudine against HBV replication; assay type: cell-based, hepatitis B virus; conditions: together with Lamivudine; CI <1.0 indicates synergy
Description: Current nucleos(t)ide analog therapy for HBV has converted hepatitis type B from an implacably progressing illness to a controllable disease. However, patients are only very rarely cured, in part due to the incomplete inhibition of HBV replication. The inventors hypothesized that the novel RNaseH inhibitors would work synergistically with the existing nucleos(t)ide analogs because the two classes of drugs target physically distinct active sites on the viral polymerase protein. […] RNAseH inhibitors from two different chemical classes were employed, compound #1 [2-hydroxyisoquinoline-1,3(2H,4H)-dione], an HID, and #46 (β-thujaplicinol), an α-hydroxytropolone, were tested. Chou-Talaly analysis yields a combination index (CI). CI values <1.0 indicate synergy, CIs of approximately 1.0 indicate additive interactions, and CI values >1.0 indicate antagonism. CI values are calculated at various efficacy levels (EC50, EC75, EC90, and EC95), and a weighted CI value favoring higher efficacy levels is also generated. FIGS. 4A & 4B show the results of four experiments employing compound #1 and three with compound #46. […] Therefore, RNAseH inhibitors act strongly synergistically with an approved nucleos(t)ide analog drug against HBV.

HBV RNAseH = test: Biochemical RNAseH assay with patient-derived variant HBV RNAseH enzymes; design: species or system hepatitis B virus; conditions: four genotype D patient-derived enzymes; compound at its IC50 (FIGS. 5A & 5B)
Procedure: RNaseH activity was measured using an oligonucleotide-directed RNA cleavage assay as previously described in Hu, et al., Tavis, et al., and Cai, et al. (2013; 2013; and 2014, respectfully). Briefly, 6 μL protein extract was mixed on ice with an internally ^32P-labeled 264 nt RNA derived from the Duck Hepatitis B Virus genome (DRF+ RNA) plus 3 μg oligonucleotide D2507- or its inverse-complement oligonucleotide D2526+ as a negative control. This mixture was incubated with test compounds in 50 mM Tris pH 8.0, 190 mM NaCl, 5 mM MgCl2, 3.5 mM DTT, 0.05% NP40, 6% glycerol, and 1% DMSO at 42° C. for 90 minutes. Cleavage products were resolved by denaturing polyacrylamide gel electrophoresis, detected by autoradiography, and quantified using ImageJ. Non-specific background values were determined from the incorrect oligonucleotide negative control lane and subtracted from all experimental values. IC50 values were then calculated with GraphPad Prism using three-parameter log(inhibitor) vs. response non-linear curve fitting with the curve minimum set to zero to reflect background subtraction.
HBV has 8 genotypes differing in sequence by 8%. Genetic diversity in the RNAseH domain is about 6%, which is easily high enough to modulate viral sensitivity to RNAseH inhibitors. […]

HBV [2] = test: HBV replication assay in HepDES19 cells; assay type: cell-based, hepatitis B virus; design: key to Qualitative HBV replication inhibition assay: **: + DNA suppression <25% and − DNA suppression >60%; *: + DNA suppression <50% of − DNA suppression; conditions: for EC50: Hepatitis B virus, HBV replication, HepDES19 cells; for Qualitative HBV replication inhibition assay: plus- vs minus-polarity DNA strand suppression
Procedure: Inhibition of HBV replication was measured in HepDES19 cells as previously described in Cai, et al. (2014). Cells were seeded into 6-well plates and incubated in DMEM/F12, 10% fetal bovine serum (FBS), 1% penicillin/streptomycin (P/S) with 1 μg/mL tetracycline. Tetracycline was withdrawn after 24 hours. The test compound was applied to duplicate wells 48 hours later in medium containing a final DMSO concentration of 1%, and medium containing the compound was refreshed daily for the following two days. Cells were harvested and non-encapsidated nucleic acids were digested with micrococcal nuclease (New England Biolabs). HBV DNA was purified from capsids using QIAamp Cador Pathogen Mini Kit (Qiagen) with proteinase K incubation overnight at 37° C. TaqMan PCR was performed for 40 cycles at an annealing temperature of 60° C. Primers and probe (IDT Inc.) for the plus-polarity strand were: 5′[…]3′ (SEQ ID NO: 1); 5′[…]3′ (SEQ ID NO: 2); 5′/56-FAM/[…]/ZEN/[…]/3IABkFQ (SEQ ID NO: 3). Primers and probe for the minus-polarity strand were: 5′[…]3′ (SEQ ID NO: 4; 5′[…]3′ (SEQ ID NO: 5); 5′/56-FAM/[…]/ZEN/[…]/3IABkFQ (SEQ ID NO: 6).

[3] = MTT cytotoxicity assay in HepDES19 cells; assay type: cell-based; conditions: human
Procedure: 1.0×10^4 HepDES19 cells per well were seeded in 96-well plates and incubated in DMEM with 10% FBS plus 1% P/S, 1% non-essential amino acids, and 1% glutamine. Compounds were diluted in medium to the indicated concentrations plus 1% DMSO and added to cells 24 hours after plating, with each concentration tested in triplicate. Medium containing the compound was refreshed daily for the next two days. Thiazolyl blue tetrazolium bromide (MTT, Sigma-Aldrich) was added to 0.25 mg/mL, the cultures were incubated for 60 minutes, metabolites were solubilized in acidic isopropanol, and absorbance was read at 570 nm.

HSV-1 = test: Anti-HSV-1 replication assay (virus yield by plaque assay on Vero cells); assay type: cell-based, herpes simplex virus 1 (HSV-1); conditions: for HSV-1 Log10 suppression 5 μM / HSV-1 Log10 suppression 50 μM: Vero cells, moi 0.1, 24 h, relative to DMSO control
Procedure: (§1) Vero cells were maintained in Dulbecco's modified Eagle's medium (DMEM) containing 3% newborn calf serum, 3% bovine growth serum, 2 mM L-glutamine and 100 IU/mL penicillin and 0.1 mg/mL streptomycin (P/S). HSV-1 #6 and HSV-2 #1 are de-identified clinical isolates from the Saint Louis University Hospital. Stocks were prepared after a single passage in cell culture and were titered by standard plaque assay (Knipe and Spang, 1982). Wild-type HSV-2 used in FIG. 3 was laboratory strain 333. […] Virus stocks were grown and titered on Vero cells (Morrison and Knipe, 1996).
(§2) Compounds to be screened were diluted in PBS supplemented to contain 2% newborn calf serum and 1% glutamine, and added in 100 μL volume to confluent cell monolayers in 24-well cluster plates. Immediately thereafter HSV-1 and HSV-2, diluted in the supplemented PBS medium, were added to the wells in 50 μl volume such that the final concentration of compound was 50 μM, 5 μM and 1 μM and the multiplicity of infection was 0.1. The plates were incubated at 37° C. for 1 hour and then virus-containing inoculum was removed and the wells were washed once in PBS. Compound, diluted to 50 μM, 5 μM and 1 μM in DMEM supplemented to contain 2% newborn calf serum and 1% each penicillin/streptomycin, was added at 0.5 mL/well. Plates were incubated at 37° C. an additional 23 hours, and then the plates were visually inspected through a phase contrast microscope for cytopathic effect, and for toxic effect. The entire contents of each well were collected by scraping. Samples were frozen at −80° C., and then subsequently thawed, sonicated, and infectious virus titer was determined by standard plaque assay on Vero cell monolayers. Because the compounds were dissolved at 10 mM in 100% DMSO, equivalent dilutions of DMSO were added to additional wells as a control for effects of the diluent. Each experiment was repeated once. EC50 values were determined as above except that serial dilutions of the compound to be tested were prepared starting at 50 μM. The inhibitory values were calculated by non-linear curve-fitting in GraphPad Prism.

HSV-2 = test: Anti-HSV-2 replication assay (virus yield by plaque assay on Vero cells); assay type: cell-based, herpes simplex virus 2 (HSV-2); conditions: for HSV-2 Log10 suppression 5 μM / HSV-2 Log10 suppression 50 μM: Vero cells, moi 0.1, 24 h, relative to DMSO control
Procedure: as §1, §2

[4] = system: TK-deficient mutant of HSV-2 strain 333, ΔTK-; test: Replication of TK-deficient HSV-2 mutant in Vero cells; assay type: cell-based, herpes simplex virus 2 (HSV-2); conditions: 5 μM, 24 h (FIG. 3)
Procedure: Vero cells were maintained in Dulbecco's modified Eagle's medium (DMEM) containing 3% newborn calf serum, 3% bovine growth serum, 2 mM L-glutamine and 100 IU/mL penicillin and 0.1 mg/mL streptomycin (P/S). HSV-1 #6 and HSV-2 #1 are de-identified clinical isolates from the Saint Louis University Hospital. Stocks were prepared after a single passage in cell culture and were titered by standard plaque assay (Knipe and Spang, 1982). Wild-type HSV-2 used in FIG. 3 was laboratory strain 333. The TK-deficient mutant of HSV-2 strain 333, ΔTK-, contains a 180-bp KpnI-KpnI deletion in the UL23 open reading frame that abrogates TK activity (McDermott, et al, 1984). ΔTK—was the generous gift of Jim Smiley. Virus stocks were grown and titered on Vero cells (Morrison and Knipe, 1996).
ACV is a nucleoside analog prodrug that must be phosphorylated by the viral thymidine kinase (TK) for it to become a substrate for the viral DNA polymerase (Elion, et al., 1977). HSV TK-deficient mutants are therefore insensitive to ACV. […] Vero cells were infected with a laboratory strain of HSV-2 and an engineered TK-deficient mutant of the same strain. […] ACV 5 μM inhibited wild-type HSV-2 replication 100-fold, but it had little effect on the TK-mutant (FIG. 3).

in vitro = assay type: cell-based; conditions: African green monkey
Procedure: Qualitative assessments of cytotoxicity were done visually by inspecting the cells in the primary screening assays. For the quantitative assays, cells were plated in 96-well plates at 1.0×10^4 per well. The next day the compounds were added at 0.78 to 100 μM in a final concentration of 1% (v/v) DMSO, and the cells were incubated for 24 hours under conditions identical to those employed for the viral replication inhibition assays. Mitochondrial toxicity was measured by incubating the cells with 0.25 mg/mL thiazolyl blue tetrazolium bromide (MTT, SigmaAldrich Chemical Co.), the cultures were incubated for 60 min, metabolites were solubilized in acidic isopropanol, and absorbance was read at 570 nm. CC50 values were calculated by non-linear curve fitting using GraphPad Prism.
A quantitative toxicity measurement was conducted. Toxicity was assessed by measuring release of intracellular proteases into the culture medium due to cellular lysis. Cells were plated in 96-well plates at 1.0×10^4 per well. The next day compound was added in concentrations ranging from 0.78 to 100 μM in a final concentration of 1% (v/v) DMSO. The cells were incubated for 24 hours under conditions identical to those employed for the viral replication inhibition assays, and then […] according to the manufacturer's instructions. […]

[5] = Mouse liver microsome assay; assay type: in vitro ADME; conditions: for ER: extraction ratio; for ER / Non-P450 turn-over / half-life at 1 μM: mouse liver microsomes; for half-life at 1 μM / CLint scaled at 1 μM: 1 μM compound; for half-life at 1 μM: read-out: t ½; for CLint scaled at 1 μM: mouse
Procedure: Microsomal incubations are run at a final P450 concentration of 0.25 μM. […] The mixture is prewarmed for 5 min at 37° C. To initiate the reaction a 12 mM stock of NAPDH (1.2 mM, final concentration) is added to the warmed microsomal mixture and aliquots are removed at 0, 5, 10, 20 and 30 min. […] Samples are vortexed and spun down at 3200 rpm for 5 min. The supernant is transferred to 96-deep well plates and run on LC/MS/MS.

Structure (SMILES)	EC50 (HBV [2])	Qualitative HBV replication inhibition assay (HBV [2])	CC50 at 3 days [3]	HSV-1 Log10 suppression 5 μM (HSV-1)	HSV-1 Log10 suppression 50 μM (HSV-1)	HSV-2 Log10 suppression 5 μM (HSV-2)	HSV-2 Log10 suppression 50 μM (HSV-2)	further results
O=C1Cc2ccccc2C(=O)N1O [#1, 2-hydroxyisoquinoline-1,3(2H,4H)-dione]	–	–	–	–	–	–	–	weighted combination index (CI) (HBV [1]): 0.70±0.1; inhibition of HBV RNAseH (HBV RNAseH): about 50%
Cc1ccc(O)c(=O)c(O)c1 [#210]	1.5 µM	**	71 µM	–	–	–	–	–
CC(C)=CCc1ccc(=O)c(O)cc1C(C)C [#49]	–	–	9 µM	–	–	–	–	–
O=c1cc(NCc2ccccc2)c2cccnc2n1O [#151]	4.7 µM	**	15 µM	–	–	–	–	suppression of HSV-1 replication in cell culture (HSV-1; 5 μM or less): strongly suppressed; suppression of HSV-2 replication in cell culture (HSV-2; 5 μM or less): strongly suppressed
Nc1nc2c(ncn2COCCO)c(=O)[nH]1 [Acyclovir, acyclovir, reference compound]	–	–	–	3.61 log10	5.39 log10	3.91 log10	5.25 log10	inhibition of TK-mutant HSV-2 [4]: little effect; HSV-1 Log10 suppression 5 μM (HSV-1; listed as acyclovir): 4.22 log10; HSV-2 Log10 suppression 5 μM (HSV-2; listed as acyclovir): 3.6 log10; CC50 at 24 h (in vitro): > 100 µM
NCc1cccc(-c2ccc(Cc3cc(=O)n(O)c4ncccc34)cc2)c1 [Compound 153]	4.1 µM	**	10 µM	–	–	–	–	–
Cc1cc(COc2ccc(Oc3ccc(Cl)cc3)cc2)n(O)c(=O)c1 [#211]	13 µM	**	30 µM	0.08 log10	1.6 log10	0.04 log10	1.81 log10	–
Cc1cc(C2CCCCC2)n(O)c(=O)c1 [#41]	–	–	–	–	–	–	–	ER [5]: 0.16; Non-P450 turn-over [5]: No; half-life at 1 μM [5]: > 2 h; CLint scaled at 1 μM ([5]; microsomes, read-out: CL ‘hep): 14 mL/min/kg; CLint scaled at 1 μM ([5]; microsomes, read-out: CL’int): 17 mL/min/kg
C/C(=N\c1ccccc1N)c1c(C)cc(=O)n(O)c1O [#208]	0.69 µM	**	15 µM	0.15 log10	2.63 log10	0.11 log10	0.26 log10	ER [5]: <0.1; Non-P450 turn-over [5]: No; half-life at 1 μM [5]: > 2 h; CLint scaled at 1 μM ([5]; liver microsomes, read-out: CL ‘hep): 163 mL/min/kg
